According to patent publication US20020177180A1, “pH-indicator based assay for selective enzymes” (ThermoGen, Inc., priority 1998, published 2002):

Tests used:
Assay in all cases: Initial screening of ThermoGen esterases toward esters 1-31 (pH indicator), specific activity
Format in all cases: biochemical
Conditions in all cases: 1 mM substrate, pH 7.2, 7 vol % acetonitrile, 25° C.
esterase E011 = tested on: esterase E011
Experimental: (§1) Initial screening measures the initial rate of hydrolysis of different esters. The rate of reaction was measured by monitoring the release of protons using a pH indicator, 4-nitrophenol. In this assay, the yellow color of the phenoxide disappears as the reaction proceeds. The amount of ester hydrolyzed can be measured quantitatively, as is known in the art.

esterase E016 = tested on: esterase E016
Experimental: as §1
(§2) To survey the substrate selectivity of the ThermoGen esterases, the ability of the enzymes to hydrolyze thirty-one different commercially-available esters, Scheme 1 (FIG. 9, Table 6).

esterase E020 = tested on: esterase E020
Experimental: as §1, §2

esterase E006 = tested on: esterase E006
Experimental: as §1, §2

esterase E014 = tested on: esterase E014
Experimental: as §1, §2

esterase E012 = tested on: esterase E012
Experimental: as §1, §2

esterase E015 = tested on: esterase E015
Experimental: as §1, §2

| SMILES | Specific activity, esterase E011 (esterase E011) | Specific activity, esterase E016 (esterase E016) | Specific activity, esterase E020 (esterase E020) | Specific activity, esterase E006 (esterase E006) | Specific activity, esterase E014 (esterase E014) | Specific activity, esterase E012 (esterase E012) | Specific activity, esterase E015 (esterase E015) |
| --- | --- | --- | --- | --- | --- | --- | --- |
| CCC(C)OC(C)=O (centres unmarked) [Substrate 28] | 0.19 mmol ester hydrolyzed/min/mg protein | <2 mmol ester hydrolyzed/min/mg protein | 2.1 mmol ester hydrolyzed/min/mg protein | 0.16 mmol ester hydrolyzed/min/mg protein | <0.1 mmol ester hydrolyzed/min/mg protein | <2 mmol ester hydrolyzed/min/mg protein | 0.29 mmol ester hydrolyzed/min/mg protein |
| COC(=O)c1ccc(CO)cc1 [Substrate 23] | <0.1 mmol ester hydrolyzed/min/mg protein | <2 mmol ester hydrolyzed/min/mg protein | 0.47 mmol ester hydrolyzed/min/mg protein | 0.27 mmol ester hydrolyzed/min/mg protein | <0.1 mmol ester hydrolyzed/min/mg protein | <2 mmol ester hydrolyzed/min/mg protein | 0.13 mmol ester hydrolyzed/min/mg protein |
| CCCOC(C)=O [Substrate 24] | 0.25 mmol ester hydrolyzed/min/mg protein | <2 mmol ester hydrolyzed/min/mg protein | 0.85 mmol ester hydrolyzed/min/mg protein | 0.31 mmol ester hydrolyzed/min/mg protein | <0.1 mmol ester hydrolyzed/min/mg protein | 2.8 mmol ester hydrolyzed/min/mg protein | 0.26 mmol ester hydrolyzed/min/mg protein |
| CCCC(=O)OCC1COC(C)(C)O1 (racemic) [Substrate 8, (±)-Solketal Butyrate, reference compound] | <0.1 mmol ester hydrolyzed/min/mg protein | 2.2 mmol ester hydrolyzed/min/mg protein | <0.2 mmol ester hydrolyzed/min/mg protein | 0.13 mmol ester hydrolyzed/min/mg protein | <0.1 mmol ester hydrolyzed/min/mg protein | <2 mmol ester hydrolyzed/min/mg protein | 0.16 mmol ester hydrolyzed/min/mg protein |
| CCOC(=O)CBr [Substrate 18] | 5.5 mmol ester hydrolyzed/min/mg protein | 16 mmol ester hydrolyzed/min/mg protein | 3.1 mmol ester hydrolyzed/min/mg protein | 4.8 mmol ester hydrolyzed/min/mg protein | 37 mmol ester hydrolyzed/min/mg protein | 5.9 mmol ester hydrolyzed/min/mg protein | 100 mmol ester hydrolyzed/min/mg protein |
| CC(C(=O)Oc1ccc([N+](=O)[O-])cc1)c1ccccc1 (racemic) [Substrate 1, (±)-4-nitrophenyl-2-phenylpropanoate, reference compound] | 5.1 mmol ester hydrolyzed/min/mg protein | 63 mmol ester hydrolyzed/min/mg protein | 110 mmol ester hydrolyzed/min/mg protein | 120 mmol ester hydrolyzed/min/mg protein | 1.2 mmol ester hydrolyzed/min/mg protein | 3.1 mmol ester hydrolyzed/min/mg protein | 89 mmol ester hydrolyzed/min/mg protein |
| CCCCOC(C)=O [Substrate 25] | 0.5 mmol ester hydrolyzed/min/mg protein | 13 mmol ester hydrolyzed/min/mg protein | 2.0 mmol ester hydrolyzed/min/mg protein | 0.54 mmol ester hydrolyzed/min/mg protein | 0.21 mmol ester hydrolyzed/min/mg protein | <2 mmol ester hydrolyzed/min/mg protein | 1.0 mmol ester hydrolyzed/min/mg protein |
| C=COC(=O)CCCCC [Substrate 4] | 680 mmol ester hydrolyzed/min/mg protein | 1300 mmol ester hydrolyzed/min/mg protein | 3000 mmol ester hydrolyzed/min/mg protein | 1700 mmol ester hydrolyzed/min/mg protein | 540 mmol ester hydrolyzed/min/mg protein | 48 mmol ester hydrolyzed/min/mg protein | 1100 mmol ester hydrolyzed/min/mg protein |
| COC(=O)CBr [Substrate 19] | 1.6 mmol ester hydrolyzed/min/mg protein | 7.6 mmol ester hydrolyzed/min/mg protein | 1.6 mmol ester hydrolyzed/min/mg protein | 1.9 mmol ester hydrolyzed/min/mg protein | 0.73 mmol ester hydrolyzed/min/mg protein | 2.4 mmol ester hydrolyzed/min/mg protein | 2.6 mmol ester hydrolyzed/min/mg protein |
| NC(Cc1ccccc1)C(=O)Oc1ccc([N+](=O)[O-])cc1.O=C(O)C(F)(F)F (racemic) [Substrate 3, D,L-phenylalanine-4-nitrophenol ester TFA salt, reference compound] | 220 mmol ester hydrolyzed/min/mg protein | 230 mmol ester hydrolyzed/min/mg protein | 550 mmol ester hydrolyzed/min/mg protein | 410 mmol ester hydrolyzed/min/mg protein | 180 mmol ester hydrolyzed/min/mg protein | 37 mmol ester hydrolyzed/min/mg protein | 280 mmol ester hydrolyzed/min/mg protein |
| CCCC(=O)OCC1CO1 (centres unmarked) [Substrate 30] | 1.2 mmol ester hydrolyzed/min/mg protein | 14 mmol ester hydrolyzed/min/mg protein | 2.0 mmol ester hydrolyzed/min/mg protein | 3.5 mmol ester hydrolyzed/min/mg protein | 0.53 mmol ester hydrolyzed/min/mg protein | 3.4 mmol ester hydrolyzed/min/mg protein | 3.2 mmol ester hydrolyzed/min/mg protein |
